# Test results taken from US9840512B2, “Antidiabetic bicyclic compounds” (Merck Sharp & Dohme Corp., priority 2013, dated 2017).
# pEC50: −log10 of the molar value.
# Columns and labels:
# human GPR40 [1] = biological target: T1, human GPR40 (Homo sapiens, UniProt O14842); assay: Inositol Phosphate Turnover (IP1) Assay 1; details: Human IP1 Assay 1, EC50, nM, HEK cells stably expressing human GPR40
# Method: The assay is performed in 96-well format. HEK cells stably expressing human GPR40 are plated to be 60-80% confluent within 72 h. After 72 h, the plates are aspirated and the cells washed with inositol-free DMEM (ICN). The wash media is replaced with 150 μL of 3H-inositol labeling media (inositol-free media containing 0.4% human albumin or 0.4% mouse albumin, 1× pen/strep antibiotics, glutamine, 25 mM HEPES to which is added 3H-myo-inositol NEN #NET114A 1 mCi/mL, 25 Ci/mmol diluted 1:150 in loading media with a final specific radioactivity of 1 μCi/150 μL). Alternatively, the human and mouse albumin can be added after the overnight labeling step before the addition of LiCl.
# The assay is typically run the next day after 18 h labeling. On the day of the assay, 5 μL of 300 mM LiCl is added to all wells and incubated at 37 degrees for 20 min. 0.75 μL of 200× compounds are added and incubated with the cells for 60 min at 37 degrees. The media is then aspirated off and the assay terminated with the addition of 60 μL 10 mM formic acid. The cells are lysed for 60 min at room temperature. 15-30 μL of lysate is mixed with 70 μL/1 mg YSi SPA beads (Amersham) in clear bottom Isoplates. The plates are shaken for 2 h at room temperature. Beads are allowed to settle and the plates are counted in the Wallac Microbeta.
# human GPR40 [2] = biological target: T1, human GPR40; assay: FLIPR assay (agonist-induced calcium mobilization); details: for EC50: Human FLIPR EC50, nM or % activation (EC50 values), GPR40/CHO NFAT BLA cells; for activation at 10 µM: CHONFAT, read-out: Human FLIPR EC50, nM or % activation (% activation values)
# Method: Human and mouse GPR40 stable cell-lines were generated in CHO cells stably expressing NFAT BLA (Beta-lactamase). […] The expression plasmids were transfected using lipofectamine (Life Technologies) following manufacturer's instructions. Stable cell-lines were generated following drug selection.
# FLIPR (Fluorimetric Imaging Plate Reader, Molecular Devices) assays were performed to measure agonist-induced calcium mobilization of the stable clones. For the FLIPR assay, one day before assay, GPR40/CHO NFAT BLA cells were seeded into black-wall-clear-bottom 384-well plates (Costar) at 1.4×10e4 cells/20 μL medium/well. The cells were incubated with 20 μl/well of the assay buffer (HBSS, 0.1% BSA, 20 mM HEPES, 2.5 mM probenecid, pH 7.4) containing 8 μM fluo-4, AM, 0.08% pluronic acid at room temperature for 100 minutes. Fluorescence output was measured using FLIPR. Compounds were dissolved in DMSO and diluted to desired concentrations with assay buffer.
# human GPR40 [3] = biological target: T1, human GPR40; assay: Inositol Phosphate Turnover (IP1) Assay 2; type: cell-based; parameters: expressed in transfected cells; details: HEK cells stably expressing human GPR40, Table 3, read-out: Human IP1 activity
# In short: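 HEK cells stably expressing human GPR40 (aequorin reporter background) seeded and grown 16 h at 37 °C, then treated with compound in IP-One stimulation buffer for 60 min at 37 °C. IP1 accumulation detected by HTRF/FRET after 60 min with detection reagents in the dark.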
# T1 sequence (O14842 whole entry): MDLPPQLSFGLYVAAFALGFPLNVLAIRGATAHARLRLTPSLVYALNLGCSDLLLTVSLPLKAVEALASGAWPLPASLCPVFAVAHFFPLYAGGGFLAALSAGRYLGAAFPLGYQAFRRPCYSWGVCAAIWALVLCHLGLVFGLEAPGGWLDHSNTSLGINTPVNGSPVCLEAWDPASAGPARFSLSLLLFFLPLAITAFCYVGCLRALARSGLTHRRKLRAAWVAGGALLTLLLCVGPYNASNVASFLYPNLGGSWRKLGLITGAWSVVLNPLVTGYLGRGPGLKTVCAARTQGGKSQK
SMILES,EC50 (human GPR40 [1]),EC50 (human GPR40 [2]),also measured
CC#CC(CC(=O)O)c1ccc2c(c1)CCC(c1nc(-c3c(C)cccc3C)ccc1F)O2 (mixture of isomers) [Example 16],710 nM,76 nM,–
CC#CC(CC(=O)O)c1ccc2c(c1)CCC(c1ccc(C(F)(F)F)c(Cl)c1)O2 (mixture of isomers) [Example 18],–,1540 nM,–
CC#CC(CC(=O)O)c1ccc2c(c1)CCC(c1nc(-c3ccc(OC)nc3C)ccc1F)O2 (mixture of isomers) [Example 19],4500 nM,106 nM,–
CC#CC(CC(=O)O)c1ccc2c(c1)CCC(c1nc(-c3cccnc3C(F)(F)F)ccc1F)O2 (mixture of isomers) [Example 20],–,172 nM,–
CC#CC(CC(=O)O)c1ccc2c(c1)CCC(c1cccc(-c3c(C)noc3C)c1)O2 (mixture of isomers) [Example 22],638 nM,151 nM,–
CC#CC(CC(=O)O)c1ccc2c(c1)CCC(c1cccc(Oc3ccc(C#N)cc3)c1)O2 (mixture of isomers) [Example 23],116 nM,40 nM,–
CC#CC(CC(=O)O)c1ccc2c(c1)CCC(c1cc(-c3ccc(OC)nc3C)ccc1F)O2 (mixture of isomers) [Example 24],58 nM,57 nM,–
CC#CC(CC(=O)O)c1ccc2c(c1)CCC(c1cccc(-c3cccnc3C)c1)O2 (mixture of isomers) [Example 26],–,244 nM,–
CC#CC(CC(=O)O)c1ccc2c(c1)CCC(c1cccc(-c3ccccc3C(F)(F)F)c1)O2 (mixture of isomers) [Example 27],726 nM,52 nM,–
CC#CC(CC(=O)O)c1ccc2c(c1)CCC(c1cc(Br)ccc1F)O2 (mixture of isomers) [Example 28],536 nM,115 nM,–
CC#C[C@@H](CC(=O)O)c1ccc2c(c1)CCC(c1cc(-c3ccc(C(F)(F)F)cc3)ccc1F)O2 (mixture of isomers) [Example 29],–,162 nM,–
CC#C[C@@H](CC(=O)O)c1ccc2c(c1)CCC(c1cc(-c3cc(OC)ccc3F)ccc1F)O2 (mixture of isomers) [Example 30],–,128 nM,–
CC#C[C@@H](CC(=O)O)c1ccc2c(c1)CCC(c1cc(-c3cccnc3C(F)(F)F)ccc1F)O2 (mixture of isomers) [Example 31],60 nM,95 nM,–
CC#C[C@@H](CC(=O)O)c1ccc2c(c1)CCC(c1cccc(-c3cccc4c3c(C(F)(F)F)nn4C)c1)O2 (mixture of isomers) [Example 32],149 nM,57 nM,–
CC#C[C@@H](CC(=O)O)c1ccc2c(c1)CCC(c1cc(C3=CCCC3(C)C)ccc1F)O2 (mixture of isomers) [Example 33],1300 nM,114 nM,–
Cc1cccc(C)c1-c1cccc(C2CCc3cc(C(CC(=O)O)c4ccccn4)ccc3O2)c1 (mixture of isomers) [Example 34],–,734 nM,–
Cc1cccc(C)c1-c1cccc(C2CCc3cc(C(CC(=O)O)C4CC4)ccc3O2)c1 (mixture of isomers) [Example 43],–,2040 nM,–
CC(C)=CC(CC(=O)O)c1ccc2c(c1)CCC(c1cccc(-c3c(C)cccc3C)c1)O2 (mixture of isomers) [Example 44],6060 nM,69 nM,–
CC#C[C@@H](CC(=O)O)c1ccc2c(c1)CCC(c1ccc(OCc3ccccc3)cc1)O2 (mixture of isomers) [Example 50],877 nM,9 nM,–
Cc1ccccc1-c1cccc(C2CCc3cc4c(cc3O2)OC[C@H]4CC(=O)O)c1F (mixture of isomers) [Example 58],–,1040 nM,–

SMILES,EC50 (human GPR40 [1]),EC50 (human GPR40 [2]),also measured
O=C(O)CCc1ccc2c(c1)CCC(c1ccccc1)O2 (racemic) [Example 2],–,–,activation at 10 µM (human GPR40 [2]): 79%
"Cc1cccc(C)c1-c1cccc(C2CC(=O)c3cc(CCC(=O)O)ccc3O2)c1 (racemic) [Example 7, 3-(2-(2′,6′-dimethyl-[1,1′-biphenyl]-3-yl)-4-oxochroman-6-yl)propanoic acid]",–,–,activation at 10 µM (human GPR40 [2]): 70%
"Cc1cccc(C)c1-c1cccc(C2CC(F)(F)c3cc(CCC(=O)O)ccc3O2)c1 (racemic) [Example 8, 3-(2-(2′,6′-dimethyl-[1,1′-biphenyl]-3-yl)-4,4-difluorochroman-6-yl)propanoic acid]",–,349 nM,–
"CC#C[C@@H](CC(=O)O)c1ccc2c(c1)CCC(c1cc(-c3cccnc3C(F)(F)F)ccc1F)O2 (single isomer, unassigned) [Example 36]",–,178 nM,–
"CC#C[C@@H](CC(=O)O)c1ccc2c(c1)CCC(c1cccc(-c3c(C)noc3C)c1)O2 (single isomer, unassigned) [Example 39]",–,113 nM,–
"CC#C[C@@H](CC(=O)O)c1ccc2c(c1)CCC(c1cccc(-c3c(C)noc3C)c1)O2 (single isomer, unassigned) [Example 40]",–,255 nM,–
"CC#CC(CC(=O)O)c1ccc2c(c1)OC(c1ccc(-c3c(C)cccc3C)cc1)CC2 (single isomer, unassigned) [Example 53]",–,2140 nM,–
"CC#CC(CC(=O)O)c1ccc2c(c1)OC(c1ccc(-c3c(C)cccc3C)cc1)CC2 (single isomer, unassigned) [Example 54]",–,1090 nM,–
"Cc1cccc(C)c1-c1cccc(C2CCc3cc(-c4cc(=O)[nH][s+]4[O-])ccc3O2)c1 [Example 9, (1R)-5-(2-(2′,6′-dimethyl-[1,1′-biphenyl]-3-yl)chroman-6-yl)isothiazol-3(2H)-one 1-oxide]",–,1920 nM,–
"Cc1cccc(C)c1-c1cccc(C2CCc3nc(CCC(=O)O)ccc3O2)c1 (stereo not drawn) [Example 10, 3-(2-(2′,6′-dimethyl-[1,1′-biphenyl]-3-yl)-3,4-dihydro-2H-pyrano[3,2-b]pyridin-6-yl)propanoic acid]",–,1310 nM,–
COc1ccccc1C(CC(=O)O)c1ccc2c(c1)CCC(c1cccc(-c3c(C)cccc3C)c1)O2 (stereo not drawn) [Example 45],–,–,activation at 10 µM (human GPR40 [2]): 12.5%
COc1cccc(C(CC(=O)O)c2ccc3c(c2)CCC(c2cccc(-c4c(C)cccc4C)c2)O3)c1 (stereo not drawn) [Example 46],–,–,activation at 10 µM (human GPR40 [2]): 41%
COc1ccc(C(CC(=O)O)c2ccc3c(c2)CCC(c2cccc(-c4c(C)cccc4C)c2)O3)cc1 (stereo not drawn) [Example 47],–,–,activation at 10 µM (human GPR40 [2]): 61%
"Cc1cccc(C)c1-c1cccc(C2CCc3cc4c(cc3O2)OC[C@H]4CC(=O)O)c1 (stereo partly drawn) [Example 55, 2-((3S)-7-(2′,6′-dimethyl-[1,1′-biphenyl]-3-yl)-3,5,6,7-tetrahydro-2H-furo[3,2-g]chromen-3-yl)acetic acid]",–,247 nM,–
Cc1ccccc1-c1ccc(C2CCc3cc4c(cc3O2)OC[C@H]4CC(=O)O)c(F)c1 (stereo partly drawn) [Example 57],–,1050 nM,–
COc1ccc(F)c(-c2ccc([C@H]3COc4ccc([C@H](C5CC5)[C@@H](C)C(=O)O)cc4O3)cc2Cl)c1 [Example 183],–,–,pEC50 (human GPR40 [3]): 7.00
COc1ccc(F)c(-c2ccc(C3COc4ccc([C@H](C5CC5)[C@H](C)C(=O)O)c(F)c4O3)cc2)c1 (stereo partly drawn) [Example 184],–,–,pEC50 (human GPR40 [3]): 8.80
"C[C@H](C(=O)O)[C@H](c1ccc2c(c1)O[C@H](C1CN([C@H](C)c3cc(C(F)(F)F)ccc3C(F)(F)F)C1)CO2)C1CC1 [Example 189, (2S,3R)-3-((R)-3-(1-((R)-1-(2,5-bis(trifluoromethyl)phenyl)ethyl)azetidin-3-yl)-2,3-dihydrobenzo[b][1,4]dioxin-6-yl)-3-cyclopropyl-2-methylpropanoic acid]",–,–,pEC50 (human GPR40 [3]): 7.88
C[C@H](C(=O)O)[C@H](c1ccc2c(c1)O[C@H](C1CN([C@@H](C)c3cc(C(F)(F)F)ccc3C(F)(F)F)C1)CO2)C1CC1 [Example 190],–,–,pEC50 (human GPR40 [3]): 7.69
